In test [1] the target is Cat L (UniProt P07711). Kind of test: Cathepsin enzyme inhibition assay (fluorogenic peptide substrate Z-Val-Val-Arg-AMC), Cathepsin L. It counts as biochemical, human and mouse. The conditions noted are these: enzyme 1 nM, substrate 20 μM, pH 6.5; read-out: CatL IC50. In outline: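 Fluorogenic cleavage of Z-Val-Val-Arg-AMC (20 μM) by 1 nM Cat L was monitored at ex 360/em 465 nm for 20 min, the linear phase. The buffer was 100 mM potassium phosphate pH 6.5 with 5 mM EDTA and DTT. IC50 values were derived by standard methods, in μM.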

The target of test [2] is Cathepsin S (UniProt P25774). Description: Cathepsin enzyme inhibition assay (fluorogenic peptide substrate Z-Val-Val-Arg-AMC), Cathepsin S. It counts as biochemical, human and mouse. Conditions: enzyme 1 nM, substrate 20 μM, pH 6.5; read-out: CatS IC50. In outline: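 Compounds were combined with 1 nM human or mouse enzyme, and substrate then started the reaction. The buffer was potassium phosphate (100 mM, pH 6.5) containing EDTA-Na 5 mM, Triton X-100 0.001% and […] 5 mM.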

Where a name gives a salt, the structure may show the parent alone.

By IC50 is commonly meant the point on the concentration scale where inhibition reaches its midpoint. Regarding `N#CC1(NC(=O)[C@@H]2C[C@@H](S(=O)(=O)c3ccccc3Cl)CN2C(=O)C2(C(F)(F)F)CC2)CC1` [Example 213, (2S,4R)-4-(2-Chloro-benzenesulfonyl)-1-(1-trifluoromethyl-cyclopropanecarbonyl)-pyrrolidine-2-carboxylic acid (1-cyano-cyclopropyl)-amide], the values for the IC50 in test [1] and in test [2] were 7970 nM and 0.4 nM, respectively.
For `CCC(=O)N1C[C@H](S(=O)(=O)c2ccccc2C(F)(F)F)C[C@H]1C(=O)NC1(C#N)CC1` [Example 103, (2S,4R)-1-Propionyl-4-(2-trifluoromethyl-benzenesulfonyl)-pyrrolidine-2-carboxylic acid (1-cyano-cyclopropyl)-amide], in that order: ≥ 25000 nM and 1.6 nM.
For `Cc1cc(N2C[C@H](S(=O)(=O)c3ccc(OCC(F)(F)F)cc3Cl)C[C@H]2C(=O)NC2(C#N)CC2)n(C2CCOCC2)n1` [Example 482, (2S,4R)-4-[2-Chloro-4-(2,2,2-trifluoro-ethoxy)-benzenesulfonyl]-1-[5-methyl-2-(tetrahydro-pyran-4-yl)-2H-pyrazol-3-yl]-pyrrolidine-2-carboxylic acid (1-cyano-cyclopropyl)-amide], in that order: 2710 nM and 0.765 nM.
For `N#CC1(NC(=O)[C@@H]2C[C@@H](S(=O)(=O)c3ccc(-n4cccn4)cc3C(F)(F)F)CN2)CC1` [Example 19, (2S,4R)-4-(4-Pyrazol-1-yl-2-trifluoromethyl-benzenesulfonyl)-pyrrolidine-2-carboxylic acid (1-cyano-cyclopropyl)-amide hydrochloride], in that order: ≥ 25000 nM and 1.3 nM.
On to `CC(C)(C)C(=O)N1C[C@H](S(=O)(=O)c2ccc(OCC(F)(F)F)cc2C(F)(F)F)C[C@H]1C(=O)NC1(C#N)CC1` [Example 212, (2S,4R)-1-(2,2-Dimethyl-propionyl)-4-[4-(2,2,2-trifluoro-ethoxy)-2-trifluoromethyl-benzenesulfonyl]-pyrrolidine-2-carboxylic acid (1-cyano-cyclopropyl)-amide], for which the IC50 is ≥ 25000 nM in test [1] and 0.3 nM in test [2].
For `N#CC1(NC(=O)[C@@H]2C[C@@H](S(=O)(=O)c3ccccc3C(F)(F)F)CN2Cc2ccccc2)CC1` [Example 107, (2S,4R)-1-Benzyl-4-(2-trifluoromethyl-benzenesulfonyl)-pyrrolidine-2-carboxylic acid (1-cyano-cyclopropyl)-amide], in that order: 16600 nM and 25 nM.
For `N#CC1(NC(=O)[C@@H]2C[C@@H](S(=O)(=O)c3ccc(-n4cnc5ccccc54)cc3C(F)(F)F)CN2)CC1` [Example 22, (2S,4R)-4-(4-Benzoimidazol-1-yl-2-trifluoromethyl-benzenesulfonyl)-pyrrolidine-2-carboxylic Acid (1-cyano-cyclopropyl)-amide hydrochloride], in that order: ≥ 25000 nM and 0.5 nM.
Take `Cc1cc(-n2nc(C)cc2N2C[C@H](S(=O)(=O)c3ccccc3C(F)(F)F)C[C@H]2C(=O)NC2(C#N)CC2)cc(C)n1` [Example 351]: the results for the IC50 in test [1] and in test [2] were ≥ 25000 nM and 19.5 nM, respectively.
The corresponding values for `N#CC1(NC(=O)[C@@H]2C[C@@H](S(=O)(=O)c3ccccc3Cl)CN2C(=O)c2ccccc2)CC1` [Example 75, (2S,4R)-1-Benzoyl-4-(2-chloro-benzenesulfonyl)-pyrrolidine-2-carboxylic acid (1-cyano-cyclopropyl)-amide] are 6790 nM and 0.8 nM.
For `N#CC1(NC(=O)[C@@H]2C[C@@H](S(=O)(=O)c3ccccc3C(F)(F)F)CN2Cc2ccncc2)CC1` [Example 108, (2S,4R)-1-Pyridin-4-ylmethyl-4-(2-trifluoromethyl-benzenesulfonyl)-pyrrolidine-2-carboxylic Acid (1-cyano-cyclopropyl)-amide], in that order: 47700 nM and 5.8 nM.
The corresponding values for `CCOC(=O)N1C[C@H](S(=O)(=O)c2ccccc2Cl)C[C@H]1C(=O)NC1(C#N)CC1` [Example 96, (2S,4R)-4-(2-Chloro-benzenesulfonyl)-2-(1-cyano-cyclopropylcarbamoyl)-pyrrolidine-1-carboxylic acid ethyl ester] are 31500 nM and 2.6 nM.
Turning to `CC(C)CS(=O)(=O)[C@@H]1C[C@@H](C(=O)NC2(C#N)CC2)N(C(=O)OC(C)(C)C)C1` [Example 113, (2S,4R)-2-(1-Cyano-cyclopropylcarbamoyl)-4-(2-methyl-propane-1-sulfonyl)-pyrrolidine-1-carboxylic acid tert-butyl ester], the results for the IC50 in test [1] and in test [2] were ≥ 25000 nM and 3130 nM, respectively.
As for `N#CC1(NC(=O)[C@@H]2C[C@@H](S(=O)(=O)c3ccc(N4CCN(C5CC5)CC4)cc3Cl)CN2C(=O)C2(C(F)(F)F)CC2)CC1` [Example 298, (2S,4R)-4-[2-Chloro-4-(4-cyclopropyl-piperazin-1-yl)-benzenesulfonyl]-1-(1-trifluoromethyl-cyclopropanecarbonyl)-pyrrolidine-2-carboxylic acid (1-cyano-cyclopropyl)-amide], the IC50 in test [1] is 1580 nM; in test [2], 0.22 nM.
For `CC(C)(C)OC(=O)N1C[C@H](S(=O)(=O)c2ccc(OCCN3CCCCC3)cc2Cl)C[C@H]1C(=O)NC1(C#N)CC1` [Example 139, (2S,4R)-4-[2-Chloro-4-(2-piperidin-1-yl-ethoxy)-benzenesulfonyl]-2-(1-cyano-cyclopropylcarbamoyl)-pyrrolidine-1-carboxylic acid tert.-butyl ester], in that order: ≥ 25000 nM and 7.8 nM.
The corresponding values for `Cc1cc(N2C[C@H](S(=O)(=O)c3ccc(F)cc3Cl)C[C@H]2C(=O)NC2(C#N)CC2)n(C2CCC2)n1` [Example 385, (2S,4R)-4-(2-Chloro-4-fluoro-benzenesulfonyl)-1-(2-cyclobutyl-5-methyl-2H-pyrazol-3-yl)-pyrrolidine-2-carboxylic acid (1-cyano-cyclopropyl)-amide] are 6460 nM and 0.54 nM.
The corresponding values for `N#CC1(NC(=O)[C@@H]2C[C@@H](S(=O)(=O)c3ccccc3Cl)CN2C(=O)C2(c3ccc(OC(F)(F)F)cc3)CC2)CC1` [Example 281, (2S,4R)-4-(2-Chloro-benzenesulfonyl)-1-[1-(4-trifluoromethoxy-phenyl)-cyclopropanecarbonyl]-pyrrolidine-2-carboxylic acid (1-cyano-cyclopropyl)-amide] are 145 nM and 0.28 nM.
As to `CC(C)(C(=O)N1C[C@H](S(=O)(=O)c2ccc(OCC(F)(F)F)cc2Cl)C[C@H]1C(=O)NC1(C#N)CC1)c1ccc(Cl)cc1` [Example 279, (2S,4R)-1-[2-(4-Chloro-phenyl)-2-methyl-propionyl]-4-[2-chloro-4-(2,2,2-trifluoro-ethoxy)-benzenesulfonyl]-pyrrolidine-2-carboxylic acid (1-cyano-cyclopropyl)-amide], the IC50 in test [1] amounted to 1310 nM; in test [2], 0.02 nM.
For `C=CCN[C@@H](C(=O)N1C[C@H](S(=O)(=O)c2ccccc2OCC=C)C[C@H]1C(=O)NC1(C#N)CC1)c1ccc(Cl)cc1` [Example 455, (2S,4R)-1-[(R)-2-Allylamino-2-(4-chloro-phenyl)-acetyl]-4-(2-allyloxy-benzenesulfonyl)-pyrrolidine-2-carboxylic acid (1-cyano-cyclopropyl)-amide], in that order: ≥ 25000 nM and 77 nM.
For the compound `Cc1cc(N2C[C@H](S(=O)(=O)c3ccc(N4CCN(C(C)(C)C)CC4)cc3Cl)C[C@H]2C(=O)NC2(C#N)CC2)n(C2CCOCC2)n1` [Example 481, (2S,4R)-4-[4-(4-tert-Butyl-piperazin-1-yl)-2-chloro-benzenesulfonyl]-1-[5-methyl-2-(tetrahydro-pyran-4-yl)-2H-pyrazol-3-yl]-pyrrolidine-2-carboxylic acid (1-cyano-cyclopropyl)-amide], the IC50 in test [1] was 1270 nM; in test [2] it was 0.6 nM.
The corresponding values for `Cc1cc(N2C[C@H](S(=O)(=O)c3ccccc3Cl)C[C@H]2C(=O)NC2(C#N)CC2)n(Cc2cncn2C)n1` [Example 476, (2S,4R)-4-(2-Chloro-benzenesulfonyl)-1-[5-methyl-2-(3-methyl-3H-imidazol-4-ylmethyl)-2H-pyrazol-3-yl]-pyrrolidine-2-carboxylic acid (1-cyano-cyclopropyl)-amide] are 4760 nM and 6.6 nM.
For `Cc1cc(N2C[C@H](S(=O)(=O)c3ccc(F)cc3C(F)(F)F)C[C@H]2C(=O)NC2(C#N)CC2)n(C2CCC2)n1` [Example 388, (2S,4R)-1-(2-Cyclobutyl-5-methyl-2H-pyrazol-3-yl)-4-(4-fluoro-2-trifluoromethyl-benzenesulfonyl)-pyrrolidine-2-carboxylic acid (1-cyano-cyclopropyl)-amide], in that order: 35600 nM and 0.48 nM.
The corresponding values for `N#CCNC(=O)[C@@H]1C[C@@H](S(=O)(=O)c2ccccc2C(F)(F)F)CN1C(=O)C1CCOCC1` [Example 68, (2S,4R)-1-(Tetrahydro-pyran-4-carbonyl)-4-(2-trifluoromethyl-benzenesulfonyl)-pyrrolidine-2-carboxylic acid cyanomethyl-amide] are ≥ 25000 nM and 0.3 nM.
In the case of `N#CC1(NC(=O)[C@@H]2C[C@@H](S(=O)(=O)c3ccccc3Cl)CN2C(=O)C(F)(F)c2ccc(Cl)c(Cl)c2)CC1` [Example 437, (2S,4R)-4-(2-Chloro-benzenesulfonyl)-1-[2-(3,4-dichloro-phenyl)-2,2-difluoro-acetyl]-pyrrolidine-2-carboxylic acid (1-cyano-cyclopropyl)-amide], the IC50 in test [1] came out at 335 nM; in test [2] it was 1.45 nM.

Values taken from US8163793B2, “Proline derivatives” (Hoffman-La Roche Inc., priority 2009, dated 2012).
